ChEMBL document CHEMBL4665905, “2-Amino-N-heteroaryl-nicotimamides as Na1.8 Inhibitors” (ACS Med Chem Lett, 2020)
pIC50: −log10 of the molar value.

Molecular target: Sodium channel protein type 10 subunit alpha (Homo sapiens, UniProt Q9Y5Y9)
Assay: Inhibition of human Nav1.8 expressed in HEK293 cells by whole cell patch clamp assay
Format: cell-based

Sodium channel protein type 10 subunit alpha, sequence (Q9Y5Y9 whole entry): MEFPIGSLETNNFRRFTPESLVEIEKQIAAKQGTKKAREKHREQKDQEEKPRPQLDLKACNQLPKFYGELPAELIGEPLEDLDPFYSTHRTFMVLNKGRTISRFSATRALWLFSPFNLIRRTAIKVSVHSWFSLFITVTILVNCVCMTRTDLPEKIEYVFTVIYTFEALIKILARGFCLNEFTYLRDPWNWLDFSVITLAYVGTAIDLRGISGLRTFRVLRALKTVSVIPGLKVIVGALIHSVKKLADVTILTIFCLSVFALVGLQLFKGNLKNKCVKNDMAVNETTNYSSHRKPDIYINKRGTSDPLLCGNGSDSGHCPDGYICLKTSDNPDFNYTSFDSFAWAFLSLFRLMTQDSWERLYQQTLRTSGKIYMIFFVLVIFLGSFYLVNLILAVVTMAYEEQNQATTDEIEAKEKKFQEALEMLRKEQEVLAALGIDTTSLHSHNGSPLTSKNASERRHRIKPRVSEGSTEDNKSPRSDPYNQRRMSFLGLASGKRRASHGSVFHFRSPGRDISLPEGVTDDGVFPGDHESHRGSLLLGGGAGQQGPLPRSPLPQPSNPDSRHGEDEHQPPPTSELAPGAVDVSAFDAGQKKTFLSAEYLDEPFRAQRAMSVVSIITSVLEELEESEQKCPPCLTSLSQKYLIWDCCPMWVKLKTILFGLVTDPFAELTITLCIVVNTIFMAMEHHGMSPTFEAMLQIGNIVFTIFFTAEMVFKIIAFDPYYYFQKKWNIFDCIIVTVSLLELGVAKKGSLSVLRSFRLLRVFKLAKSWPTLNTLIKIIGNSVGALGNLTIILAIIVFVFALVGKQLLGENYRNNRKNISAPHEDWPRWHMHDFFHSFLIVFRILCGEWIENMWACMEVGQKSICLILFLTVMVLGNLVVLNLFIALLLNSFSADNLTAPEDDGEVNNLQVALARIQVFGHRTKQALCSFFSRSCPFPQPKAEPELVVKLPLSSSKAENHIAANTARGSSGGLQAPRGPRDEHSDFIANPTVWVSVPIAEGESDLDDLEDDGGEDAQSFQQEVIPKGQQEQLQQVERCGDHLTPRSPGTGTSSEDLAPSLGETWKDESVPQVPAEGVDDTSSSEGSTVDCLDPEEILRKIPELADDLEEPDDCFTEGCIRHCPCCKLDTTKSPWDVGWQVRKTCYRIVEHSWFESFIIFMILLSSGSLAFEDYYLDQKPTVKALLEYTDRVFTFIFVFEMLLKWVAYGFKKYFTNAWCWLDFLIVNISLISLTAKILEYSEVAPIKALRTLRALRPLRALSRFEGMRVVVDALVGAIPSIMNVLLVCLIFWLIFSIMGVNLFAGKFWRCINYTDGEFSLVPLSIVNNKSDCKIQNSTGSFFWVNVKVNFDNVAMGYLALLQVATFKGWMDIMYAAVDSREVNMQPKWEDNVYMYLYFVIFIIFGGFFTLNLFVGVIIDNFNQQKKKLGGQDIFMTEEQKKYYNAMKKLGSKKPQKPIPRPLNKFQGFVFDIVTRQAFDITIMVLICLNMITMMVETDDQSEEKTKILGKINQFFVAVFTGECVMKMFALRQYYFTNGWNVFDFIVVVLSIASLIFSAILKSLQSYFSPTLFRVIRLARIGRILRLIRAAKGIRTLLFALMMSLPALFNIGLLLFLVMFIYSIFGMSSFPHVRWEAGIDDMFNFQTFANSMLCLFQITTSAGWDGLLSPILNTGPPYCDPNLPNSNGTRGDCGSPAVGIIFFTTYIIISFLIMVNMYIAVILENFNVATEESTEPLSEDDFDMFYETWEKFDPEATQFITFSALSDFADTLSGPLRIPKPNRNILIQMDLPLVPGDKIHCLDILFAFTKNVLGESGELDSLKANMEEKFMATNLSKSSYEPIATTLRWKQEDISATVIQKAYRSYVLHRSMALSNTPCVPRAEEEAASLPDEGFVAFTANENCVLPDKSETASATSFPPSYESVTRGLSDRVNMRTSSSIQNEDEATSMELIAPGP

pIC50: 8.41
Compound: NS(=O)(=O)c1cc(NC(=O)c2cc(Cl)cnc2N2CCCC(F)(F)CC2)ccn1
